Data from ChEMBL document CHEMBL3407355, “Understanding the importance of glycosylated threonine and stereospecific action of Drosocin, a Proline rich antimicrobial peptide” (Eur J Med Chem, 2015).
≈ marks a conversion by molar mass, not a printed value. Calls of active or inactive are those of the source. No cut-off for these calls is given here. Where a SMILES comes first, the peptide text is derived from it. The star is where a group is joined. αGalNAc = CC(=O)N[C@@H]1[C@@H](O)[C@@H](O)[C@@H](CO)O[C@@H]1*; X1 = CC(=O)N[C@H]1[C@H](O)[C@H](O)[C@H](CO)O[C@H]1*

Assays:
Salmonella typhimurium = experiment: Antimicrobial activity against Salmonella typhimurium ATCC 14028 by broth microdilution assay; assay type: functional, Salmonella enterica subsp. enterica serovar Typhimurium; conditions: Salmonella enterica
Escherichia coli [1] = experiment: Antimicrobial activity against Escherichia coli ATCC 11775 by broth microdilution assay; assay type: functional
Escherichia coli [2] = experiment: Antimicrobial activity against Escherichia coli ATCC 25922 by broth microdilution assay; assay type: functional
Salmonella typhi = experiment: Antimicrobial activity against Salmonella typhi Vi+ by broth microdilution assay; assay type: functional, Salmonella enterica subsp. enterica serovar Typhi; conditions: Salmonella enterica
Escherichia coli [3] = experiment: Antimicrobial activity against Escherichia coli ATCC 35218 by broth microdilution assay; assay type: functional
Escherichia coli [4] = experiment: Binding affinity to Escherichia coli His-tagged recombinant […] binding domain of DnaK assessed as rate constant by […] Plasmon resonance assay
Escherichia coli [5] = experiment: In-vitro inhibition of luciferase reporter gene translation in Escherichia coli S30 extract at 200 ng by transcription/translation assay; assay type: functional
Escherichia coli [6] = experiment: Inhibition of protein biosynthesis in Escherichia coli ATCC 25922 assessed as incorporation of [35S]methionine into protein at 10 times of MIC concentration by in-vivo translation assay; assay type: functional, organism-based
[7] = Binding affinity to Escherichia coli His-tagged recombinant […] binding domain of DnaK by […] Plasmon resonance assay
Escherichia coli [8] = experiment: Inhibition of protein biosynthesis in Escherichia coli ATCC 25922 assessed as incorporation of [35S]methionine into protein at 2.5 ug/300 ul by in-vivo translation assay; assay type: functional, organism-based
Escherichia coli [9] = experiment: Drug uptake in Escherichia coli ATCC 25922 assessed as cellular internalization after 30 mins by FACS analysis; assay type: ADME, organism-based; conditions: in vivo, 0.5 h
Escherichia coli [10] = experiment: Inhibition of RNA biosynthesis in Escherichia coli ATCC 25922 assessed as incorporation of [3H]uridine into RNA at 10 times of MIC concentration by in-vivo transcription assay; assay type: functional, organism-based

Compound	MIC (Salmonella typhimurium)	MIC (Escherichia coli [1])	MIC (Escherichia coli [2])	MIC (Salmonella typhi)	MIC (Escherichia coli [3])	Ka (Escherichia coli [4])	Kdiss (Escherichia coli [4])	inhibition (Escherichia coli [5])	inhibition (Escherichia coli [6])	Kd [7]	inhibition (Escherichia coli [8])	Drug uptake (Escherichia coli [9])	inhibition (Escherichia coli [10])
CC[C@H](C)[C@H](NC(=O)[C@@H]1CCCN1C(=O)[C@H](CCCNC(=N)N)NC(=O)[C@@H]1CCCN1C(=O)[C@H](Cc1cnc[nH]1)NC(=O)[C@H](CO)NC(=O)[C@H](CO[C@H]1O[C@H](CO)[C@H](O)[C@H](O)[C@H]1NC(C)=O)NC(=O)[C@@H]1CCCN1C(=O)[C@H](CCCNC(=N)N)NC(=O)[C@@H]1CCCN1C(=O)[C@H](CO)NC(=O)[C@H](Cc1ccc(O)cc1)NC(=O)[C@@H]1CCCN1C(=O)[C@H](CCCNC(=N)N)NC(=O)[C@@H]1CCCN1C(=O)[C@H](CCCCN)NC(=O)CN)C(=O)N[C@@H](CCCNC(=N)N)C(=O)N[C@H](C(=O)O)C(C)C (H-GKPRPYSPRPS(αGalNAc)SHPRPIRV-OH)	6 µM (≈ 14.3 µg/mL)	1.6 µM (≈ 3.82 µg/mL)	1.1 µM (≈ 2.63 µg/mL)	5 µM (≈ 11.9 µg/mL)	0.5 µM (≈ 1.19 µg/mL)								
H-GKPRPYSPRPSSHPRPIRV-OH	2 µM	0.6 µM	0.4 µM	3 µM	0.2 µM								
CC[C@H](C)[C@H](NC(=O)[C@@H]1CCCN1C(=O)[C@H](CCCNC(=N)N)NC(=O)[C@@H]1CCCN1C(=O)[C@H](Cc1cnc[nH]1)NC(=O)[C@@H]1CCCN1C(=O)[C@@H]1CCCN1C(=O)[C@@H]1CCCN1C(=O)[C@H](CCCNC(=N)N)NC(=O)[C@@H]1CCCN1C(=O)[C@@H]1CCCN1C(=O)[C@H](Cc1ccc(O)cc1)NC(=O)[C@@H]1CCCN1C(=O)[C@H](CCCNC(=N)N)NC(=O)[C@@H]1CCCN1C(=O)[C@H](CCCCN)NC(=O)CN)C(=O)N[C@@H](CCCNC(=N)N)C(=O)N[C@H](C(=O)O)C(C)C	0.6 µM (≈ 1.33 µg/mL)	0.3 µM (≈ 0.664 µg/mL)	0.3 µM (≈ 0.664 µg/mL)	0.6 µM (≈ 1.33 µg/mL)	0.2 µM (≈ 0.443 µg/mL)	2.45 ×10⁴ /M/s	0.0366 s⁻¹	Active	Active	1.49 µM			
CN(C)[C@@H]1C(O)=C(C(N)=O)C(=O)[C@@]2(O)C(O)=C3C(=O)c4c(O)cccc4[C@@](C)(O)[C@H]3C[C@@H]12											Active		
CC[C@H](C)[C@H](NC(=O)[C@@H]1CCCN1C(=O)[C@H](CCCNC(=N)N)NC(=O)[C@@H]1CCCN1C(=O)[C@H](Cc1cnc[nH]1)NC(=O)[C@H](CO)NC(=O)[C@@H](NC(=O)[C@@H]1CCCN1C(=O)[C@H](CCCNC(=N)N)NC(=O)[C@@H]1CCCN1C(=O)[C@H](CO)NC(=O)[C@H](Cc1ccc(O)cc1)NC(=O)[C@@H]1CCCN1C(=O)[C@H](CCCNC(=N)N)NC(=O)[C@@H]1CCCN1C(=O)[C@H](CCCCN)NC(=O)CN)[C@@H](C)O[C@@H]1O[C@@H](CO)[C@@H](O)[C@@H](O)[C@@H]1NC(C)=O)C(=O)N[C@@H](CCCNC(=N)N)C(=O)N[C@H](C(=O)O)C(C)C (H-GKPRPYSPRPT(X1)SHPRPIRV-OH)	1.8 µM (≈ 4.32 µg/mL)	0.5 µM (≈ 1.2 µg/mL)	0.3 µM (≈ 0.721 µg/mL)	1.3 µM (≈ 3.12 µg/mL)	0.2 µM (≈ 0.48 µg/mL)	1.94 ×10⁴ /M/s	0.0297 s⁻¹			1.53 µM		20%	
CC[C@H](C)[C@H](NC(=O)[C@@H]1CCCN1C(=O)[C@H](CCCNC(=N)N)NC(=O)[C@@H]1CCCN1C(=O)[C@H](Cc1cnc[nH]1)NC(=O)[C@H](CO)NC(=O)[C@@H](NC(=O)[C@@H]1CCCN1C(=O)[C@H](CCCNC(=N)N)NC(=O)[C@@H]1CCCN1C(=O)[C@H](CO)NC(=O)[C@H](Cc1ccc(O)cc1)NC(=O)[C@@H]1CCCN1C(=O)[C@H](CCCNC(=N)N)NC(=O)[C@@H]1CCCN1C(=O)[C@H](CCCCN)NC(=O)CN)[C@@H](C)O[C@H]1O[C@H](CO)[C@H](O)[C@H](O)[C@H]1NC(C)=O)C(=O)N[C@@H](CCCNC(=N)N)C(=O)N[C@H](C(=O)O)C(C)C (H-GKPRPYSPRPT(αGalNAc)SHPRPIRV-OH)	0.3 µM (≈ 0.721 µg/mL)	0.3 µM (≈ 0.721 µg/mL)	0.2 µM (≈ 0.48 µg/mL)	0.3 µM (≈ 0.721 µg/mL)	0.2 µM (≈ 0.48 µg/mL)	2.04 ×10⁴ /M/s	0.0366 s⁻¹			1.79 µM		16%	
CC[C@@H](C)[C@@H](NC(=O)[C@H]1CCCN1C(=O)[C@@H](CCCNC(=N)N)NC(=O)[C@H]1CCCN1C(=O)[C@@H](Cc1cnc[nH]1)NC(=O)[C@H]1CCCN1C(=O)[C@H]1CCCN1C(=O)[C@H]1CCCN1C(=O)[C@@H](CCCNC(=N)N)NC(=O)[C@H]1CCCN1C(=O)[C@H]1CCCN1C(=O)[C@@H](Cc1ccc(O)cc1)NC(=O)[C@H]1CCCN1C(=O)[C@@H](CCCNC(=N)N)NC(=O)[C@H]1CCCN1C(=O)[C@@H](CCCCN)NC(=O)CN)C(=O)N[C@H](CCCNC(=N)N)C(=O)N[C@@H](C(=O)O)C(C)C	> 200 µM	> 200 µM	> 200 µM	> 200 µM	> 200 µM	9.34 ×10⁴ /M/s	0.0137 s⁻¹	Active	inactive	1.47 µM		2%	inactive
H-GKPRPYSPRPTSHPRPIRV-OH [DROSOCIN]	2 µM	0.7 µM	0.5 µM	3 µM	0.4 µM								
